How the values were obtained:
Test in all cases: KINOMEscan competition binding
Details in all cases: compound 1.0 µM
[1] = biological target: CDK14 (human) (UniProt O94921)
[2] = biological target: PRKAA1 (human) (UniProt Q13131)
[3] = biological target: ERBB3 (human) (UniProt P21860)
[4] = biological target: CDKL2 (human) (UniProt Q92772)
[5] = biological target: JAK1 JH2 pseudokinase (human) (UniProt P23458)
[6] = biological target: AKT1 (human) (UniProt P31749)
[7] = biological target: ITK (human) (UniProt Q08881)
[8] = biological target: NLK (human) (UniProt Q9UBE8)
[9] = biological target: GSK3A (human) (UniProt P49840)
GSK3A (human), sequence (P49840 whole entry, looked up): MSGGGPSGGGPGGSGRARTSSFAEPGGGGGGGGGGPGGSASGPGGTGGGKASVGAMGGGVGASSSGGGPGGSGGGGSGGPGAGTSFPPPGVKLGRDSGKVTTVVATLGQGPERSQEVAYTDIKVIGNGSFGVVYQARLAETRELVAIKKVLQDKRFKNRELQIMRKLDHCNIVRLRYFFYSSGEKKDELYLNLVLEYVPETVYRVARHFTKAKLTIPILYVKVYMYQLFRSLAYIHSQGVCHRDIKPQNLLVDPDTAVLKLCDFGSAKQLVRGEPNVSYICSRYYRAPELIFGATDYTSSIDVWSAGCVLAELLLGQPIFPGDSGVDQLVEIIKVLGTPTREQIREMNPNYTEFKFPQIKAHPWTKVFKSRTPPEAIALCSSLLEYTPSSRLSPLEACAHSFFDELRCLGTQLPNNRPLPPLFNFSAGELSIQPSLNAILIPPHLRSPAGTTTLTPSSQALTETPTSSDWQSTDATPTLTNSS

[10] = system: ABL1 (human), P00519 [Y253F]
[11] = biological target: BLK (human) (UniProt P51451)
[12] = biological target: YES1 (human) (UniProt P07947)
[13] = biological target: MST4 (human) (UniProt Q9P289)
MST4 (human), sequence (Q9P289 whole entry, looked up): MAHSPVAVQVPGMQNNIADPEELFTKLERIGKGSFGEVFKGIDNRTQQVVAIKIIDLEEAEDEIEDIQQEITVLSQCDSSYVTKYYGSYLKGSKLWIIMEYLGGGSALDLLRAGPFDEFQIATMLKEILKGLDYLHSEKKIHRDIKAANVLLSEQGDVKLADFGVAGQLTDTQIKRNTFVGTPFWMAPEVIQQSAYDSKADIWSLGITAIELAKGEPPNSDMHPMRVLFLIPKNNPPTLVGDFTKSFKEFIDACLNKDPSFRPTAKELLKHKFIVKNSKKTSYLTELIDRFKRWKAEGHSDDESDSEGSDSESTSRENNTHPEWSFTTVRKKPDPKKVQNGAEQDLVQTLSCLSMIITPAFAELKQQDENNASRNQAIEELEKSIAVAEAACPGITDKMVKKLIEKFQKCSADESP

[14] = system: PIK3CA (human), P42336 [Q546K]
[15] = biological target: SIK1 (human) (UniProt P57059)
[16] = biological target: PKN3 (M.tuberculosis) (UniProt Q6P5Z2)
PKN3 (M.tuberculosis), sequence (Q6P5Z2 whole entry, looked up): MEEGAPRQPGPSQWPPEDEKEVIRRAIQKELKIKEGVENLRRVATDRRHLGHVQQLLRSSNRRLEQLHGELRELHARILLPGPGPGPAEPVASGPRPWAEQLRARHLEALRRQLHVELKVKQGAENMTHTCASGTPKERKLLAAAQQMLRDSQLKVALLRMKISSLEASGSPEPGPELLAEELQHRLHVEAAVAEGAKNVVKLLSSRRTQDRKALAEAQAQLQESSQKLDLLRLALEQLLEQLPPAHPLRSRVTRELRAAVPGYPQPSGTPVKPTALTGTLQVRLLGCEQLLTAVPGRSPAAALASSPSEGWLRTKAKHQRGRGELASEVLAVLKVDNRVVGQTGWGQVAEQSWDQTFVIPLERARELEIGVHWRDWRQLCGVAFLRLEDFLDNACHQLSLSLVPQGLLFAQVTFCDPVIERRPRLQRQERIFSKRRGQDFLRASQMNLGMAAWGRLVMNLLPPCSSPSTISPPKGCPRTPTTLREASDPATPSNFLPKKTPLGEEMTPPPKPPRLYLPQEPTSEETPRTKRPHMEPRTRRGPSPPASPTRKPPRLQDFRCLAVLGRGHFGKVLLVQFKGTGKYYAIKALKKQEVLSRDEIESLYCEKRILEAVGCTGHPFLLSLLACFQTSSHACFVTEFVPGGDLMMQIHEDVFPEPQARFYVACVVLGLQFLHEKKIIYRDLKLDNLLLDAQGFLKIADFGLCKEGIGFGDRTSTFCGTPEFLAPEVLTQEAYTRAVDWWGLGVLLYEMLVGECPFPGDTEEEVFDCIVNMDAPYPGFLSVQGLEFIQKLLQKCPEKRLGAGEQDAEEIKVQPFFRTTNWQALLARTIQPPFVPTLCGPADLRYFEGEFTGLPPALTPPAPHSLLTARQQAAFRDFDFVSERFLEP

[17] = biological target: VRK2 (human) (UniProt Q86Y07)
[18] = biological target: INSR (human) (UniProt P06213)
[19] = system: EGFR (human), P00533 [L858R]
[20] = biological target: PKN1 (human) (UniProt Q16512)
[21] = biological target: AXL (human) (UniProt P30530)
[22] = biological target: STK3 (human) (UniProt Q13188)
[23] = biological target: GSG2 (human) (UniProt Q8TF76)
[24] = biological target: NEK2 (human) (UniProt P51955)
[25] = biological target: NUAK1 (human) (UniProt O60285)
NUAK1 (human), sequence (O60285 whole entry, looked up): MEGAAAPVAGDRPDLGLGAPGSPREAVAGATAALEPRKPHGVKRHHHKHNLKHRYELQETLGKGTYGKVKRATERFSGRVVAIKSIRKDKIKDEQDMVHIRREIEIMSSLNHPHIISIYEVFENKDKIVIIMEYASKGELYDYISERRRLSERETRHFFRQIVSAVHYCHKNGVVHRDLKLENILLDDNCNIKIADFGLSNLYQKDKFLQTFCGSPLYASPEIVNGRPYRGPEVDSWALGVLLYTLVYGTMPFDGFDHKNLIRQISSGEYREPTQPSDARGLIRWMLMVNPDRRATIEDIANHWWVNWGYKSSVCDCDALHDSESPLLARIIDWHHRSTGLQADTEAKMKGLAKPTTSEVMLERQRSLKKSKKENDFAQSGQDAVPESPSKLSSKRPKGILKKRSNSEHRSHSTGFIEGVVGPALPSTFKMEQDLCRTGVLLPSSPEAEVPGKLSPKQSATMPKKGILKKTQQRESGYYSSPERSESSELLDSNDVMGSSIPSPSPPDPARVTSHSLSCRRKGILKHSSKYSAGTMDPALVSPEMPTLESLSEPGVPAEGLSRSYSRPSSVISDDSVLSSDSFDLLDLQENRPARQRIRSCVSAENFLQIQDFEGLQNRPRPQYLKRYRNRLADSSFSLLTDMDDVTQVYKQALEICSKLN

[26] = biological target: PIM2 (human) (UniProt Q9P1W9)
PIM2 (human), sequence (Q9P1W9 whole entry, looked up): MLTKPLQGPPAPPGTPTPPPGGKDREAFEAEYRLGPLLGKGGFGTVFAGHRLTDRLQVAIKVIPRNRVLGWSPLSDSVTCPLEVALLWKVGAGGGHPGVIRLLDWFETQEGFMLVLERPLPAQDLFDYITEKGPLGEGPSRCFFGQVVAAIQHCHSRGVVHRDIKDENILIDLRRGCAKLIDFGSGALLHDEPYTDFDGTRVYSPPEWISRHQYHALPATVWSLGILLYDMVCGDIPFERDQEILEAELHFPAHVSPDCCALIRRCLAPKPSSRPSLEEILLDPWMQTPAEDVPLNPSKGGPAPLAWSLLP

[27] = biological target: SBK1 (human) (UniProt Q52WX2)
[28] = biological target: CDK2 (human) (UniProt P24941)
[29] = biological target: MAPK3 (human) (UniProt P27361)
MAPK3 (human), sequence (P27361 whole entry, looked up): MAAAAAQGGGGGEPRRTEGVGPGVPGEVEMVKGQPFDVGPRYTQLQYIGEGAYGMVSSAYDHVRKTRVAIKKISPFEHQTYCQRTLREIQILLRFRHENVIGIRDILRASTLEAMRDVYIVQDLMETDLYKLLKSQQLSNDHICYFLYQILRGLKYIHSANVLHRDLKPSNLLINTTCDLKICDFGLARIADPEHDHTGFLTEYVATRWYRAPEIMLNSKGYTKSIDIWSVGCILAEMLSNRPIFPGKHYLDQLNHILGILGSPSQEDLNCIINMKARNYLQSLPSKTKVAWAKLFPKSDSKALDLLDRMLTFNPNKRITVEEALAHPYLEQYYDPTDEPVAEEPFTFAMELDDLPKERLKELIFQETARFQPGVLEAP

[30] = biological target: PAK3 (human) (UniProt O75914)
[31] = biological target: RIOK3 (human) (UniProt O14730)
[32] = biological target: MAPK15 (human) (UniProt Q8TD08)
[33] = biological target: PRKACB (human) (UniProt P22694)
[34] = biological target: CDK9 (human) (UniProt P50750)
[35] = biological target: IRAK4 (human) (UniProt Q9NWZ3)
[36] = system: FLT3 (human), P36888 [ITD]
FLT3 (human), P36888 [ITD], sequence (P36888 whole entry, looked up, change not shown): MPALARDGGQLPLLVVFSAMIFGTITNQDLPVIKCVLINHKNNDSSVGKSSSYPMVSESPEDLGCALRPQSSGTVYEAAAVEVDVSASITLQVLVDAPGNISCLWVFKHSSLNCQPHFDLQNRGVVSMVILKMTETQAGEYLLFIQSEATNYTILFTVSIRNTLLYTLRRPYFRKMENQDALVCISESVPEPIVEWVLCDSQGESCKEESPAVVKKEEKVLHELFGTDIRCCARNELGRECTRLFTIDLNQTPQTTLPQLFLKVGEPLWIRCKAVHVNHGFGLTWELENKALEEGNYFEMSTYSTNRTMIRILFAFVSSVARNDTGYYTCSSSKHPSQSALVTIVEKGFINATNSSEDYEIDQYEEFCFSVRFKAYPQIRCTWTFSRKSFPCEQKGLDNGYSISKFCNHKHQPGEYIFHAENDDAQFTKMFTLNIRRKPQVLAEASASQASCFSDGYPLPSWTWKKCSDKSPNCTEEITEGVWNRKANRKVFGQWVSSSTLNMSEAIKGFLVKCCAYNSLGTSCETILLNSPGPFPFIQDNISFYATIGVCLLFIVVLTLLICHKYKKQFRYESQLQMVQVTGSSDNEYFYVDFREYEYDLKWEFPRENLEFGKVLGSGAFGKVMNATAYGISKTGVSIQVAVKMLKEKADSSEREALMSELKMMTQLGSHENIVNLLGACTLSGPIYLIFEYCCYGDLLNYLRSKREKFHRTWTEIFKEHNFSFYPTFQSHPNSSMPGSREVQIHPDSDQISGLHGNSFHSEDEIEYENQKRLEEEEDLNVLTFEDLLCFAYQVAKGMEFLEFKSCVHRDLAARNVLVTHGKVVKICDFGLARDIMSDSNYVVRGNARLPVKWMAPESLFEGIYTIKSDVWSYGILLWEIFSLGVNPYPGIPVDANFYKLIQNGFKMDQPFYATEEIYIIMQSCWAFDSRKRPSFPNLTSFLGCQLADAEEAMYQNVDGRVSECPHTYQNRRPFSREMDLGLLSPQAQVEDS

[37] = biological target: CAMK2A (human) (UniProt Q9UQM7)
[38] = biological target: MAP2K6 (human) (UniProt P52564)
MAP2K6 (human), sequence (P52564 whole entry, looked up): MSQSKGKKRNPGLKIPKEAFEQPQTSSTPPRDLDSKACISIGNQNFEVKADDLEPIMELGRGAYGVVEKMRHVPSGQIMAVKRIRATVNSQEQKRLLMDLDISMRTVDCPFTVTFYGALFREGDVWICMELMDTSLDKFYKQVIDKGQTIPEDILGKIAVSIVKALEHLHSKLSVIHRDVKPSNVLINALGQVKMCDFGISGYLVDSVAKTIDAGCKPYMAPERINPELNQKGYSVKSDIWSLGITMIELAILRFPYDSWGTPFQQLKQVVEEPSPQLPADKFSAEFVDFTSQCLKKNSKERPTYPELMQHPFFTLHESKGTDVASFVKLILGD

[39] = biological target: MAP4K2 (human) (UniProt Q12851)

PRKAA1 (human), sequence (Q13131 whole entry, looked up): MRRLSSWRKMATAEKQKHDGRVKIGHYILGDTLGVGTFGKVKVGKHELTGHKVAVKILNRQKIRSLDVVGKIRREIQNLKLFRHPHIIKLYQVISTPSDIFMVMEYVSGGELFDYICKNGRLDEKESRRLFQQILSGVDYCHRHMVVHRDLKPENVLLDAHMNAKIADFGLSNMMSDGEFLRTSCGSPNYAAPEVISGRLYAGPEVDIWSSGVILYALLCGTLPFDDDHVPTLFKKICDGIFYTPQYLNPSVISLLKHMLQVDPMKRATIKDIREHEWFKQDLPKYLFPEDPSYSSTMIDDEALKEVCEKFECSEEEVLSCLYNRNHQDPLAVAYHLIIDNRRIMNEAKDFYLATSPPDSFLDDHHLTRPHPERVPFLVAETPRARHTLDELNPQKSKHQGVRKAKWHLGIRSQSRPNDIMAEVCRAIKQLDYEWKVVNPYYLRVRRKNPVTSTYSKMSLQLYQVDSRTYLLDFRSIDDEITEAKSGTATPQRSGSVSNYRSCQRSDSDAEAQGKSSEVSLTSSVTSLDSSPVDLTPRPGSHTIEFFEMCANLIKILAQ

CNc1nc(Nc2ccc(C(=O)N3CCOCC3)cc2OC)ncc1Cl was tested, and the residual activity [1] was 100%, the kinase still bound, per cent of control [2] was 95% and the kinase still bound, per cent of control [3] was 100%. The residual activity [4] was 100%, the kinase still bound, per cent of control [5] was 90% and the kinase still bound, per cent of control [6] was 99%. The kinase still bound, per cent of control [7] was 100%, the kinase still bound, per cent of control [8] was 100% and the kinase still bound, per cent of control [9] was 100%. For the same compound, the kinase still bound, per cent of control [10] was 69%, the kinase still bound, per cent of control [11] was 100% and the kinase still bound, per cent of control [12] was 100%. The kinase still bound, per cent of control [13] was 100%, the kinase still bound, per cent of control [14] was 100% and the kinase still bound, per cent of control [15] was 100%. The kinase still bound, per cent of control [16] was 85%, the kinase still bound, per cent of control [17] was 95% and the kinase still bound, per cent of control [18] was 82%. It also gave a kinase still bound, per cent of control [19] of 100%, a kinase still bound, per cent of control [20] of 100% and a kinase still bound, per cent of control [21] of 97%. The kinase still bound, per cent of control [22] was 76%, the kinase still bound, per cent of control [23] was 74% and the kinase still bound, per cent of control [24] was 78%. The kinase still bound, per cent of control [25] was 82%, the kinase still bound, per cent of control [26] was 100% and the kinase still bound, per cent of control [27] was 100%. For the same compound, the residual activity [28] was 95%, the kinase still bound, per cent of control [29] was 100% and the kinase still bound, per cent of control [30] was 88%. It also gave a kinase still bound, per cent of control [31] of 87%, a kinase still bound, per cent of control [32] of 100% and a residual activity [33] of 84%. For the same compound, the residual activity [34] was 100%, the kinase still bound, per cent of control [35] was 100% and the kinase still bound, per cent of control [36] was 87%. It also gave a kinase still bound, per cent of control [37] of 76%, a kinase still bound, per cent of control [38] of 100% and a kinase still bound, per cent of control [39] of 100%.

From the kinase profiling compilation of Christmann-Franck et al. (2016)
